Reference: patent US20180320177A1, “COMPOSITIONS AND METHODS FOR THE TREATMENT OF LIVER FIBROSIS” (UNIVERSITY OF CONNECTICUT, priority 2015, published 2018)

What was measured:
[1] = tested on: CCl4-induced inflammation; experiment: CCl4-induced inflammation in mouse liver; format: in vivo; conditions: CCl4-treated mice (FIG. 4C, 4D)
Experimental: Animal Care: All animal care and experimental procedures were approved by the Institutional Animal Care and Use Committee at the University of Connecticut. Shp^−/− mice were described previously. Hmgb2^−/− mice were obtained from Dr. Stella Tsirka at Stony Brook University. C57BL/6J mice were purchased from Jackson Laboratory. All mice were maintained on a 12-h light/dark cycle with free access to food and water unless otherwise indicated. For CCl4 treatment, CCl4 (Sigma) was dissolved in corn oil and administered to mice at a dose of 850 μl/kg BW by intraperitoneal injection (IP) twice a week for 6 or 10 weeks with or without ICM. Age-matched control mice were treated with a corn oil vehicle. For CCl4+ICM treatment, mice were treated with CCl4 for 2 weeks and then ICM (Department of Pharmaceutical Sciences at UConn) was dissolved in PEG (Sigma) and treated with mice (10 mg/kg) every day for 4 or 8 weeks in combination with CCl4. To induce overexpression of HMGB2 in liver, AAV8-Hmgb2 or a control AAV8-GFP was given to mice by tail vein injection at a dose of 5×10^10 GC. To knockdown HMGB2 in mouse livers, AAV-shHmgb2 or a control AAV-shGFP was delivered to mice at a dose of 2×10^10 GC by tail vein injection. One week later, mice injected with AAVs were treated with CCl4 or CCl4 +ICM as described above and sacrificed. […]

[2] = tested on: CGR8 ES cells; experiment: CGR8 ES cell differentiation and EB formation; format: cell-based, mouse
Experimental: Cell culture, Cell transfection:HEK293T, Hela, Hep3B and MHCC97H cells were cultured and transfected using X-tremeGENE™ HP DNA transfection reagent (Roche) as described previously. CGR8 ES cells were cultured on 0.1% gelatin coated tissue-culture dish in knockout DMEM medium containing 15% ES qualified-Fetal Bovine Serum, 2 mM L-glutamin, 0.1 mM NEAA, 0.1 mM β-mercaptoethanol, 50 μg/ml penicillin-streptomycin and 10 ng/ml Leukemia inhibitory factor (LIF). TIC cells were cultured in DMEM-F12 medium containing Embryomax nucleotides, 2 mM L-glutamin, 0.1 mM NEAA, 20 ng/ml mouse EGF, 50 μg/ml penicillin-streptomycin and […].
ES cells EB formation and TICs spheroid assay: CGR8 ES cells were trypsinized into single cells and cultured in ES medium devoid of LIF in hanging drops (900 cells per EB) for 2 d and transferred to ultralow attachment plate for a further 2 d suspension culture. Then, EBs were plated onto gelatin coated tissue-culture plate for further 7 d spontaneously differentiation.
FIGS. 10A-C show the establishment of CGR8 cell culture and differentiation. […] Undifferentiated feeder-free CGR8 ES cells were maintained on 0.1% gelatin coated 6-cm tissue-culture dish in ES medium containing 10 ng/ml Leukemia inhibitory factor (LIF). For EB formation, CGR8 ES cells were trypsinized into single cells and cultured in ES medium devoid of LIF in hanging drops (900 cells per EB) for 2 d and in suspension culture for a further 2 d. Then, EBs were transferred onto gelatin coated tissue-culture plate for further spontaneously differentiation. ES withdraw LIF 2d, CGR8 ES cells were cultured in ES medium devoid of LIF for 2 d.
FIG. 14A is Left, Western blot of HMGB2 and SOX2 protein in HEK293T cells transfected with 0.5 μg […] expression plasmid and 0, 1 or 2 μg Flag-HMGB2 expression plasmid. Right, Western blot of HMGB2 and OCT4 protein in HEK293T cells transfected with 0.5 μg HA-OCT4 expression plasmid and 0, 1 or 2 μg Flag-HMGB2 expression plasmid. […] CGR8 cells were lysed, co-immunoprecipitated with OCT4 antibody, followed by Western blot with HMGB2 or OCT4 antibodies. FIG. 14 C is a luciferase reporter assay. HepG2 cells were infected with AAV8-GFP or AAV8-HMGB2 24 hrs before being transfected with 6*OS luciferase reporter and OCT4, SOX2 expression plasmids alone or in combination.

CC1(C)Oc2cc(O)ccc2C2C1=CCn1c(=O)n(-c3ccccc3)c(=O)n12 (centres unmarked) [ICM, inflachromene]
inflammatory response [1]: decrease inflammatory response
CGR8 differentiation ([2]; 5 μM ICM versus DMSO (FIG. 14E)): induces CGR8 differentiation

shHMGB2: small hairpin RNA against HMGB2 (SEQ ID NO: 8), delivered by AAV or lentivirus (CCGGGCTCAACATTAGCTTCAGTATCTCGAGATACTGAAGCTAATGTTGAGCTTTTTG)
inflammatory response [1]: decrease inflammatory response
spheroid formation of CGR8 cells ([2]; EB formation, AAV8 infection versus AAV8-Null (FIG. 14D)): decreases spheroid formation
CGR8 differentiation ([2]; knockdown of HMGB2 (summary)): promotes CGR8 differentiation
